The test system of series [1] is LPS-induced NO production in RAW264.7 cells. Description: LPS-induced NO production in RAW264.7 cells (Griess reaction). The format is cell-based. As to conditions: RAW264.7 cells, LPS 2 µg/mL, supernatant after 24 h, read-out: IC50, inhibitory activity on LPS-induced NO production in RAW264.7 cells. On the procedure:
The inhibitory activities of compounds 1–16 on LPS stimulated macrophages was determined by Griess reaction. The NO content was detected by the NO kit according to the protocol described earlier ([23]). RAW264.7 cells obtained from the China Center for Cultivated Studies (Shanghai, China) were maintained in DMEM containing 10% FBS, and under 5% CO2 at 37°C. Briefly, the cells were seeded in a 96-well plate (1 × 10^5 cells/well), after 8 h of pre-incubation under 5% CO2 at 37°C, compounds 1–16 were added to the well plate, respectively, for 12 h. […] The supernatant of the cell culture were collected 24 h later.

In series [2] the test system is Huh7, HepG2, KB, H460, Hela, A-549 and MCF-7 tumor cell lines. Briefly: Cytotoxicity, SRB method, statements on all seven tumor cell lines. The format is cell-based, human. As to conditions: for cytotoxicity on seven tumor cell lines (in words): Huh7, HepG2, KB, H460, Hela, A-549, MCF-7; for IC50: all seven cell lines, SRB method, footnote of Table S3, read-out: IC50, cytotoxicity against all cell lines tested. The procedure:
The cytotoxicity of the separated compounds was assessed against seven tumor cell lines, Huh7, HepG2, KB, H460, Hela, A-549 and MCF-7 ([40], [41]).
(§1) Huh-7 (hepatoma), MCF-7 (human breast), KB (oral epithelial), Hela (cervical), H460 (lung), A-549 (lung), and HepG2 (hepatocellular) cancer cell lines (provided by Shanghai Cell Bank) were maintained in RPMI 1640 at 37 ℃, supplemented with 10% FBS. Cytotoxicity was determined by the SRB method, with 5-fluorouracil (5-FU) as a positive control. The IC50 value was calculated using the GraphPad prism program.
On the technique in general: Sulforhodamine B stains cellular protein and so reports cell mass.

The next series deals with Hela (cervical) cells. Briefly: Cytotoxicity, SRB method, Hela. The format is cell-based, human. The procedure: as §1
Another series deals with A-549 (lung) cells. Description: Cytotoxicity, SRB method, A549. The format is cell-based, human. The procedure:
as §1

The test system of series [3] is MCF-7 (human breast) cells. Briefly: Cytotoxicity, SRB method, MCF-7. The format is cell-based. The procedure: as §1
Series [4] deals with HepG2 (hepatocellular) cells. Description: Cytotoxicity, SRB method, HepG2. The format is cell-based, human. On the procedure: as §1
Series [5] concerns KB (oral epithelial) cells. Briefly: Cytotoxicity, SRB method, KB. The format is cell-based, human. The procedure:
as §1

The next series has as its system Huh-7 (hepatoma) cells. Description: Cytotoxicity, SRB method, Huh-7. The format is cell-based, human. The procedure: as §1
The next series has as its system H460 (lung) cells. Description: Cytotoxicity, SRB method, H460. The format is cell-based, human. The procedure: as §1
Series [6] in a line: Cytotoxicity, SRB method, Hela. To be noted: human, Hela (cervical) cells. The format is cell-based, human. The procedure: as §1
Series [7] in a line: Cytotoxicity, SRB method, A549. As to conditions: human, A-549 (lung) cells. The format is cell-based, human. On the procedure: as §1
The nature of series [8]: Cytotoxicity, SRB method, Huh-7. The format is cell-based, human. To be noted: human, Huh-7 (hepatoma) cells. The procedure:
as §1

Series [9] in a line: Cytotoxicity, SRB method, MCF-7. The format is cell-based, human. To be noted: human, MCF-7 (human breast) cells. On the procedure:
as §1

The nature of series [10]: Cytotoxicity, SRB method, H460. The format is cell-based, human. To be noted: human, H460 (lung) cells. On the procedure: as §1
A short description of series [11]: Cytotoxicity, SRB method, HepG2. To be noted: human, HepG2 (hepatocellular) cells. The format is cell-based, human. The procedure: as §1
The nature of series [12]: Cytotoxicity, SRB method, KB. The format is cell-based, human. To be noted: human, KB (oral epithelial) cells. The procedure:
as §1

The next series relates to xylene-induced ear edema. Description: Ear edema induced by xylene in mice. The format is in vivo. As to conditions: 200 mg/kg intragastric, 1 h before xylene, ears weighed 1 h after xylene. The source says:
Male ICR mice (18–20 g) were provided by the Laboratory Animal Center, Fujian Medical University. […] One hour after xylene treatment, the mice were sacrificed by cervical dislocation. […] The weight difference of two plugs was used to measure the edema response (Table S1). Animal care and use complied with institutional guidelines, and the program was affirmed by the Experimental Animal Management Committee of Fujian Medical University.

Where two headings read alike, the source gives them in different places. Some results are limits rather than exact numbers.

For “3R, 23S, 24R, 25- tetraol- 7- glyoxiene [Compound 14]”, in [1], the IC50 (commonly the point on the concentration scale where inhibition reaches its midpoint) was 11.2 ± 1.12 µM.
Consider 21β- methylmelianodiol [Compound 9], for which the IC50 in series [1] is 52.5 ± 8.98 µM; with Hela (cervical) cells, 60 ± 4.19 µM; in the series on A-549 (lung) cells, 66 ± 10.1 µM; in series [3], more than 100 µM; in series [4], 44.3 ± 6 µM; in [5] it was 56.6 ± 8.3 µM. For the same compound, the “cytotoxicity on seven tumor cell lines (in words)” value (“cytotoxicity” for short) in series [2] is on record as “potent inhibitory activities”.
For the compound “21β-methoxy-25-ene-bitrinonediol [Compound 7]”, the IC50 in series [1] is more than 100 µM; in the series on Hela (cervical) cells, 58.4 ± 9.09 µM; in the series on A-549 (lung) cells, more than 100 µM; with Huh-7 (hepatoma) cells it was 94.7 ± 12.5 µM; in [3] it was more than 100 µM; in the series on H460 (lung) cells it was more than 100 µM. The IC50 is more than 100 µM in series [4] and 40.9 ± 6.56 µM in [5]. The “cytotoxicity” value in series [2] is listed as “moderate cytotoxicity”.
As for “24-hydroxyl-7, 25-dien-3-one [Compound 10]”, the figures for the IC50 in series [1] and in series [2] were 95.1 ± 9.4 µM and more than 100 µM, respectively.
With `O=c1[nH]cc(F)c(=O)[nH]1` [5-Fluorouracil, 5-fluorouracil, reference compound], the IC50 in [6] came to 2.31 ± 0.98 µM; in [7], 36.2 ± 1.73 µM; in series [8], 36.2 ± 4.17 µM; in series [9], 23.4 ± 1.22 µM; in series [10] it was 13.7 ± 2.85 µM; in series [11], 30.5 ± 1.54 µM. The same compound showed an IC50 in series [12] of 19.5 ± 1.24 µM.
Take `CC(=O)Oc1ccccc1C(=O)O` [Aspirin]: in the series with xylene-induced ear edema, the “Edema Degree (±SD)” value was found to be 4.99 ± 0.30 mg and the “Inhibition Rate of ear edema” value was determined as 36.30%.
Turning to `COC(=O)CC1C2(C)CC34OC5(C)OC6(C7CC(=O)OC(C8=CC(=O)OC8O)C7(C)CCC6(O5)C13C)C(OC(=O)C(C)C)C4(O)C2OC(=O)C(C)C` (stereo not shown) [Compound 1, Phragmalin A], in [1] (Mus musculus), the IC50 was determined as 10.3 ± 0.39 µM.
On to `CCC(=O)OC1C2(O)C(OC(=O)CC(C)C)C3(C)CC24OC2(C)OC15C1CC(=O)OC(C6=CC(O)OC6=O)C1(C)CCC5(O2)C4(C)C3CC(=O)OC` (stereo not shown) [Compound 3, Chukrasin G], for which the IC50 is 10.5 ± 0.98 µM in [1] (Mus musculus); more than 100 µM in [6]; more than 100 µM in [7]; more than 100 µM in [8]; more than 100 µM in series [9]; more than 100 µM in series [10]. The figures for the IC50 in [11] and in series [12] were 99.4 ± 10.6 µM and more than 100 µM, respectively.
`COC(=O)CC1C2(C)CC34OC5(C)OC6(C7CC(=O)OC(C8=CC(O)OC8=O)C7(C)CCC6(O5)C13C)C(OC(=O)C(C)C)C4(O)C2OC(=O)C(C)C` (stereo not shown) [Compound 4, phragmalin, 22, 23-dihydro-23-hydroxy-21-oxo-3, 30-di-isobutyrates]: the IC50 in [1] was 21.9 ± 5.61 µM; in [2], more than 100 µM.
For the compound `COC(=O)CC1C2(C)CC34OC5(C)OC6(C7CC(=O)OC(c8ccoc8)C7(C)CCC6(O5)C13C)C(OC(=O)C(C)C)C4(O)C2OC(=O)C(C)C` (stereo not shown) [Compound 5, phragmalin, 3, 30-di-isobutyrates], the IC50 in [1] is 35.6 ± 7.23 µM; with Hela (cervical) cells, more than 100 µM; in the series with A-549 (lung) cells it was more than 100 µM; in the series on Huh-7 (hepatoma) cells it was more than 100 µM; in series [3], more than 100 µM; in the series with H460 (lung) cells, more than 100 µM. In addition, the concentration for half-maximal inhibition (IC50) in series [4] was 78 ± 12.7 µM; in [5], more than 100 µM.
For `CC(C)(O)C1OCC(C2CCC3(C)C4=CCC5C(C)(C)C(=O)CCC5(C)C4CCC23C)CC1O` (stereo not shown) [Compound 6, bourjotinolone A], the IC50 in [1] is 35.6 ± 4.29 µM; in the series with Hela (cervical) cells, 29.3 ± 7.11 µM; in the series with A-549 (lung) cells it was 43.6 ± 10.6 µM; with Huh-7 (hepatoma) cells it was 29.6 ± 7.69 µM; in [3] it was more than 100 µM; in series [4], 59.3 ± 4.67 µM. Also, the “cytotoxicity” value in series [2] was “potent inhibitory activities”.
With `C=C(C)C(O)C(O)CC(C)C1CCC2(C)C3=CCC4C(C)(C)C(=O)CCC4(C)C3CCC12C` (stereo not shown) [Compound 8, (13a, 14b, 17a, 20S, 23R, 24R)-23, 24-dihydro-xylanosta-7, 25-dien-3-one], the IC50 in [1] is 46.1 ± 6.11 µM; in series [2], more than 100 µM.
As to `CC(C)(O)[C@@H](O)[C@H]1C[C@@H]([C@@H]2CC[C@]3(C)C4=CC[C@H]5C(C)(C)C(=O)CC[C@]5(C)[C@H]4CC[C@@]23C)[C@H](O)O1` [Compound 11, melianodiol], the IC50 in series [1] was 13.3 ± 2.67 µM; in the series on Hela (cervical) cells, 86.3 ± 9.28 µM; in the series on A-549 (lung) cells, 45.1 ± 6.33 µM; with Huh-7 (hepatoma) cells it was 79.8 ± 9.24 µM; in series [3], 52.6 ± 7.2 µM; in the series on H460 (lung) cells it was 73.2 ± 10.5 µM. For the same compound, the values for the IC50 in series [4] and in series [5] were 80 ± 5.26 µM and 63.5 ± 8.25 µM, respectively. The “cytotoxicity” value in series [2] is “potent inhibitory activities”.
`CO[C@@H]1O[C@@H]([C@H](O)C(C)(C)OC)C[C@H]1[C@@H]1CC[C@]2(C)C3=CC[C@H]4C(C)(C)C(=O)CC[C@]4(C)[C@H]3CC[C@@]12C` [Compound 12, 21α, 25-dimethyl-melianodiol]: in [1], the IC50 was 13.9 ± 5.33 µM.
For `CO[C@H]1O[C@@H]([C@H](O)C(C)(C)OC)C[C@H]1[C@@H]1CC[C@]2(C)C3=CC[C@H]4C(C)(C)C(=O)CC[C@]4(C)[C@H]3CC[C@@]12C` [Compound 13, 21β, 25-dimethylmelianodiol], the concentration for half-maximal inhibition (IC50) in series [1] is 24.9 ± 4.6 µM.
For `C[C@@H](C[C@@H](O)[C@H](O)C(C)(C)O)[C@@H]1CC[C@]2(C)C3=CC[C@H]4C(C)(C)C(=O)CC[C@]4(C)[C@H]3CC[C@@]12C` [Compound 15, piscidinol A], the IC50 in series [1] was 33.6 ± 4.77 µM.
For the compound `CC1(C)OC[C@H]([C@@H]2CC[C@]3(C)C4=CC[C@H]5C(C)(C)C(=O)CC[C@]5(C)[C@H]4CC[C@@]23C)C[C@@H](O)[C@@H]1O` [Compound 16, hispidone], the IC50 in series [1] is more than 100 µM.
Turning to `COc1ccc2c(c1)c(CC(=O)O)c(C)n2C(=O)c1ccc(Cl)cc1` [Indomethacin, reference compound], the concentration for half-maximal inhibition (IC50) in [1] (Mus musculus) is 26.2 ± 1.56 µM.

The values above are taken from publication PMC10392864, “Chukrasia tabularis limonoid plays anti-inflammatory role by regulating NF-κB signaling pathway in lipopolysaccharide-induced macrophages” (Food & Nutrition Research, 2023).
